Usually melting point stands for the temperature of the solid-liquid transition.

Our source for the melting point values is a melting point compilation (Tetko et al.).

`O=C1CC2CCC(C1)N2c1ccccc1` registered a melting point of 89 to 91 °C.
As for `Cc1cc(CC(=O)NN)[nH]n1`, the figure is 151 to 153 °C; as for `Cc1cc(C(=O)O)nn1-c1cccc(Cl)c1`, 190 to 192 °C.
As for `C=CCNS(=O)(=O)Cc1ccc(N)cc1`, the melting point was 124 to 126 °C.
As for `CN1C(=O)C=C(Br)C1=O`, the figure is 84 to 86 °C.
Under `O=C(O)CSc1ccccc1F` stands 80 to 82 °C; under `N#Cc1ccc(Oc2ccc(F)c(Cl)c2)c(F)c1`, 97 to 99 °C.
The molecule `CC(O)c1cn(-c2ccccc2)nn1` (stereo not drawn) gave a melting point of 75 to 77 °C.
As for `Nc1nnc(C(=O)NCc2ccccc2)[nH]1`, the figure is 248 to 250 °C.
In the case of `Cc1ccc(O)c(C(=O)N2CCSCC2)c1`, the melting point was 155 to 157 °C.
As for `NC(=O)Cn1cnc2cc(C(=O)O)ccc21`, the figure is 298 to 300 °C; as for `CS(=O)(=O)Cc1nc2ccccc2n1CC(=O)O`, 249 to 251 °C; as for `Cc1ccc(-c2cc(N)nc(-c3ccccc3)c2)cc1`, 110 to 112 °C.
With `CN(CC(=O)O)C1CCCC1O` (stereo not drawn), the melting point is 150 to 152 °C.
As for `COC(=O)c1nc(-c2ccccc2)oc1N`, the figure is 193 to 195 °C.
Under `O=C1CCc2c(F)ccc(Br)c21` stands 129 to 131 °C.
Under `CC1=NOC(=O)C1CCC(=O)O` (stereo not drawn) stands 139 to 141 °C.
Turning to `O=S(=O)(O)c1ccc2[nH]cnc2c1`, the melting point fell in the range of 359 to 361 °C.
As for `CSc1cccc(NC2CCN(C)CC2)c1`, the figure is 76 to 78 °C.
Under `O=C(O)c1ccn[nH]1` stands 212 to 216 °C.
Regarding `Cc1cc(C(F)(F)F)nc(O)n1`, the melting point was in the range of 185 to 187 °C.
As for `Cc1cc(N2CCCC2=O)ccc1Br`, the figure is 107 to 109 °C; as for `Cc1ccccc1-n1nc(C(C)(C)C)cc1N`, 112 to 114 °C; as for `Clc1ccc(N2CCOCC2)nn1`, 131 to 133 °C.
As for `c1ccc2[nH]c(C3CCCNC3)nc2c1` (stereo not drawn), the figure is 189 to 191 °C.
Under `Cc1cc(F)cc(C(=O)O)c1[N+](=O)[O-]` stands 161 to 163 °C.
In the case of `COc1ccccc1C(O)c1ccccn1` (stereo not drawn), the melting point is 57 to 59 °C.
As for `C1Cc2nnc(C3CCNCC3)n2C1`, the figure is 126 to 128 °C; as for `Nc1ccc(-c2c3c(=O)[nH][nH]c(=O)c3c3n2CCC3)cc1`, 309 to 311 °C; as for `c1cnc(N2CCNCC2)cn1`, 48 to 50 °C.
Under `c1c[nH]c(C2CCCCN2)n1` (stereo not drawn) stands 144 to 146 °C.
Under `Cc1nnc2c(N)cc(Cl)nn12` stands 227 to 229 °C; under `C=CC(=O)Nc1ccc(C(=O)O)cc1`, 246 to 248 °C; under `N#CCOc1cc(F)ccc1N`, 59 to 61 °C.
For the molecule `Cc1ccc(CN2CC(C(=O)O)CC2=O)cc1` (stereo not drawn), the melting point was 152 to 156 °C.
Turning to `COc1ccc(SCCC(=O)O)cc1OC`, the melting point was in the range of 72 to 74 °C.
As for `NC(=S)COc1ccccc1`, the figure is 111 to 115 °C; as for `N#CCC(=O)c1cccc2c1OCCO2`, 99 to 101 °C.
`CN1CCC(Nc2ccccc2N)CC1` came in with a melting point of 86 to 88 °C.
As for `COC(=O)c1cc(N)cc(I)c1`, the figure is 79 to 81 °C; as for `CCC(C)C1NC(C(=O)O)CS1` (stereo not drawn), 177 to 179 °C.
As for `COC(=O)C1CCCN1C(=O)c1ccc([N+](=O)[O-])s1` (stereo not drawn), the figure is 119 to 121 °C; as for `NCC(O)c1cccc(OCc2ccccc2)c1` (stereo not drawn), 107 to 109 °C.
For the molecule `O=C1CCc2cc(C(=O)CCl)ccc2N1`, the melting point was 212 to 214 °C.
As to `Cc1ccc(-n2nc(C)c(C=O)c2Cl)cc1`, the melting point was 135 to 137 °C.
On to `O=C(CCl)Nc1ccc(Oc2ccc(Br)cc2)nc1`, for which the melting point lay within 114 to 116 °C.
As for `Cc1cc(=O)[nH]c(-c2cccc(O)c2)n1`, the figure is 213 to 215 °C.
For `Cn1c(-c2ccccc2)cc2cc[nH]c(=O)c21`, the melting point fell in the range of 201 to 203 °C.
Consider `O=c1[nH]c(CCl)nc2sccc12`, for which the melting point fell in the range of 209 to 211 °C.
In the case of `CC1(C2CC2)NC(=O)NC1=O` (stereo not drawn), the melting point was 168 to 170 °C.
Molecule `Cc1nc2c(s1)C(O)CCC2` (stereo not drawn) registered a melting point of 80 to 82 °C.
`CC1(c2ccc(S(C)(=O)=O)cc2)NC(=O)NC1=O` (stereo not drawn) returned a melting point of 228 to 230 °C.
The molecule `Fc1cccc(NC2CCOCC2)c1` yielded a melting point of 70 to 72 °C.
Under `O=C(CNC1CC1)NC1CC1` stands 47 to 49 °C; under `CC(C)(C)Cc1cc(N)on1`, 87 to 89 °C.
`Cc1ccc(C)c(-n2nnnc2S)c1` showed a melting point of 129 to 131 °C.
In turn, `Nc1ccccc1C(=O)NCCCN1CCOCC1` yielded a melting point of 194 to 198 °C.
Under `O=S1(=O)N=C2CCCCCN2C(CCl)N1` (stereo not drawn) stands 181 to 183 °C; under `CCn1c(=O)c2ccccc2n2c(CCl)nnc12`, 195 to 197 °C.
`CCS(=O)(=O)c1ccccc1C(=O)O` had a melting point of 49 to 53 °C.
With `COC(=O)C(Cc1c[nH]cn1)NC(=O)CCc1ccccc1` (stereo not drawn), the melting point was 152 to 154 °C.
`COC(=O)c1cc([N+](=O)[O-])ccc1S(=O)(=O)Cl`: the melting point was 109 to 111 °C.
As for `CSc1ccc2c(c1)CCCC2=O`, the figure is 74 to 76 °C; as for `Cc1cnn(-c2ccc(S(=O)(=O)Cl)cc2F)c1`, 99 to 101 °C.
As for `Cn1ccnc1C(=O)c1ccncc1`, the figure is 138 to 140 °C; as for `O=[N+]([O-])c1ccc(-c2ncon2)cc1`, 166 to 168 °C.
As for `O=C(Nc1ccccc1CO)c1ccco1`, the figure is 95 to 97 °C; as for `CCCc1c(C(=O)O)nnn1-c1cccc(C(C)C)c1`, 78 to 80 °C.
The molecule `CNC(=O)c1ccnc(F)c1` yielded a melting point of 127 to 129 °C.
Under `Nc1ccc(Sc2ccncc2)cc1` stands 169 to 171 °C.
The molecule `Cc1n[nH]c(C(=O)O)c1O` displayed a melting point of 184 to 186 °C.
Under `O=C(O)CONS(=O)(=O)c1ccc(F)cc1` stands 168 to 170 °C; under `COc1nc(C)cc(C)c1C#N`, 96 to 98 °C.
Under `CC(=O)Nc1ccc(Br)cc1N` stands 155 to 157 °C; under `O=C(O)c1csc(-c2ccco2)n1`, 181 to 183 °C; under `Cc1nc2ccccc2c(C)c1C(=O)O`, 186 to 188 °C.
`O=C(O)c1cc(-c2ccccc2)nc2c1cnn2Cc1cccnc1` displayed a melting point of 210 to 212 °C.
As for `CC(C)(c1cc(N)on1)S(C)(=O)=O`, the figure is 179 to 181 °C.
Under `O=c1cc(CCl)c2ccc(O)cc2o1` stands 135 to 137 °C; under `Cc1ccc(NC2CCCCC2)nc1`, 89 to 91 °C.
Under `COc1nc(Cl)c(C=O)s1` stands 43 to 45 °C; under `NNC(=S)NC1CCC1`, 96 to 98 °C; under `ClCc1cc2c(cc1Br)OCCCO2`, 75 to 77 °C.
`O=C(O)C(Nc1ccccc1)c1ccccc1F` (stereo not drawn) registered a melting point of 115 to 117 °C.
Under `CS(=O)(=O)CCCOc1cccc2c1CCC2O` (stereo not drawn) stands 77 to 79 °C.
`CC(=O)SC(C(=O)O)c1ccccc1` (stereo not drawn) registered a melting point of 79 to 81 °C.
As to `CNc1ncc(C(=O)OC)s1`, the melting point fell in the range of 115 to 117 °C.
Under `Cc1ccc(CNC(=O)CC#N)cc1` stands 127 to 129 °C; under `OCc1ccc(OCc2cccs2)cc1`, 68 to 70 °C; under `O=C(O)c1conc1-c1ccc(Cl)cc1`, 182 to 184 °C.
Under `Sc1nc(-c2cccs2)c(-c2cccs2)[nH]1` stands 293 to 295 °C; under `CCS(=O)(=O)c1ccc(NC(=O)CCl)c(O)c1`, 207 to 209 °C; under `CC(=O)c1c(C)nn(C(C)C)c1C`, 74 to 76 °C.
As for `Cc1ccc(-c2nc(CCl)co2)cc1`, the figure is 97 to 99 °C.
As to `CC(=O)c1ccoc1`, the melting point fell in the range of 52 to 54 °C.
Under `CCc1ccc(-c2csc(N)n2)s1` stands 92 to 94 °C; under `CCOC(=O)CNc1ccccc1-c1ccccc1`, 53 to 55 °C.
Take `COC(=O)CCNc1ncccc1[N+](=O)[O-]`: the melting point is 65 to 67 °C.
As for `O=C1CSCc2ccccc21`, the melting point was in the range of 56 to 58 °C.
Under `O=S(=O)(Cl)Cc1cc(Cl)ccc1F` stands 45 to 47 °C; under `CNc1ncnc2ccsc12`, 179 to 181 °C; under `C#CCn1nc(C)c(C)c1C`, 74 to 76 °C.
As for `Cc1cc(Cl)c(Cl)cc1[N+](=O)[O-]`, the figure is 57 to 59 °C; as for `N#Cc1cc(F)ccc1S(=O)(=O)Cl`, 64 to 66 °C.
On to `CC(C)(C)OC(=O)NC1(C(=O)O)CCOC(C)(C)C1` (stereo not drawn), for which the melting point is 176 to 178 °C.
As for `COc1ccccc1C1(C)NC(=O)N(CC(=O)O)C1=O` (stereo not drawn), the figure is 179 to 181 °C.
As for `Cn1ncc(C(=O)O)c1-c1ccccc1`, the figure is 213 to 215 °C; as for `Nc1nc2ccccc2n1-c1ccc(F)cc1`, 164 to 166 °C; as for `O=C(O)C1CSC2(c3ccc(F)cc3)CCC(=O)N12` (stereo not drawn), 202 to 204 °C.
Under `CCOCCNC(N)=O` stands 60 to 62 °C; under `Cc1ccc(OCCCC(=O)O)c(C)c1`, 126 to 128 °C; under `O=C(O)c1cc(C2CC2)nc2onc(-c3ccco3)c12`, 211 to 213 °C.
In turn, `CN(C)S(=O)(=O)c1ccc2nc(Cl)c(Cl)nc2c1` displayed a melting point of 139 to 141 °C.
As for `Cc1ccc(Br)cc1N1CCCS1(=O)=O`, the figure is 144 to 146 °C; as for `Clc1ccc(NCc2cccnc2)c(Cl)c1`, 76 to 78 °C; as for `Cn1cnc([N+](=O)[O-])c1CCl`, 127 to 129 °C.
With `CS(=O)(=O)c1cccc(C(=O)NN)c1`, the melting point was in the range of 144 to 146 °C.
As for `O=S1(=O)CC(O)C(NCCO)C1` (stereo not drawn), the figure is 115 to 117 °C; as for `NC(=O)Nc1ccccc1-c1ccccc1`, 155 to 157 °C.
As for `Cn1cc(C#N)c(=O)[nH]c1=O`, the figure is 239 to 241 °C.
In the case of `O=C(c1ccc(F)cc1)c1ccccn1`, the melting point is 83 to 85 °C.
`Nc1cc(F)c([N+](=O)[O-])cc1C(=O)O` returned a melting point of 249 to 251 °C.
Molecule `O=c1ccc(-c2ccccc2)n[nH]1` showed a melting point of 201 to 204 °C.
